{
  "source": "patent US10925831B2",
  "about": "“Liposomal formulations of platinum-acridine anticancer agents and methods thereof” (Wake Forest University, priority 2017, dated 2021)",
  "system": "A549 xenografts",
  "experiment": "A549 xenograft study",
  "type": "in vivo, mice",
  "details": "P8-A1 q4dx4 i.v. 0.4 mg/kg; Lipo4*-P8-A1 q4dx11 i.v. 0.4 mg/kg; cisplatin q4dx11 i.p. 4.0 mg/kg; n=8",
  "experimental": "FIGS. 10A, 10B, 10C and 10D illustrate evaluation of P8-A1 and its liposomal formulation, Lipo4-P8-A1, in a A549 xenograft model in mice. FIGS. 10 A-B illustrate tumor volumes and mouse weights monitored for Lipo4-P8-A1 and control, administered q4dx4, i.v. @ 0.4 mg/kg, n=10. Tumor growth inhibition is 65% on day 41, P<0.05. Mouse weight loss is 22% on day 41, potentially reversible. No other toxicity symptoms noted. FIGS. 10 C-D illustrate tumor volumes and mouse weights monitored for P8-A1 (q4dx4, i.v. @ 0.4 mg/kg), Lipo4*-P8-A1, (q4dx11, i.v. @ 0.4 mg/kg), cisplatin (q4dx11, i.p. @ 4.0 mg/kg), and control (q4dx11, i.v.). A total of 8 mice per group were treated (n=8). See text for discussion. […]\nA549 Xenograft study. […] Animal weights and tumor volumes were measured and recorded throughout the entire study after the first dose was administered. Tumor volumes were determined using the formula: V (mm^3)=d^2×D/2, where d and D are the shortest and longest dimension of the tumor, respectively, and are reported as the sum of both tumors for each test animal. […] The concentration of Pt in selected tissues was determined by quadrupole inductively-coupled mass spectrometry (ICP-MS) on a Thermo ICP-MS instrument at the Analytic Chemistry Service facility of Research Triangle Institute, Research Triangle Park, N.C. […]",
  "data": [
    {"compound": "N.N.[Cl][Pt][Cl]", "note": "[Cisplatin, cisplatin]", "values": [
      {"measurement": "antitumor efficacy, growth inhibition (Study B)", "value": "does not show efficacy"}
    ]}
  ]
}
